Data taken from patent US20110070232A1, “Combination Therapy with an Antitumor Alkaloid” (Pharma Mar, S.A., priority 2008, published 2011).
Converted amounts (≈) assume the structure as drawn. Where two headings read alike, the source gives them in different places.

Key:
[1] = tested on: AGS human gastric carcinoma cell line; assay: IC50 determination, MTS assay, 72 h (Example 1); assay type: cell-based; conditions: Homo sapiens, 72 hours of drug exposure, read-out: IC50
Description: (§1) The human gastric carcinoma cell lines selected for this assay were the following: Hs746T, HGC-27, and AGS cell lines. Hs746T and AGS cell lines were grown in Dulbecco's modified Eagle's medium (DMEM) supplemented with 10% Fetal Bovine Serum (FBS), 1.5 g/L sodium bicarbonate, 4.5 g/L glucose and 4 mM L-glutamine. HGC-27 cell line was grown in Iscove's modified Dulbecco's medium (IMDM) supplemented with 20% FBS and 2 mM L-glutamine.
(§2) The day before plating, the cells were fed with fresh, complete growth media. On the harvest (plating) day, cells were counted by Trypan Blue exclusion staining method.
(§3) Cells were harvested and seeded in 96 well microtiter plates at 10,000 cells density in 150 μL of media and incubated for 24 hours to allow the cells to attach before drug addition. To collect reference data, the MTS assay was done on untreated cells at time 0 (after incubation of cells for 24 hours).
(§4) The cytotoxic effect was measured by the MTS Assay (Tetrazolium), which is a colorimetric method for determining the number of viable cells. After the incubation period (24 hours for the Day 0 plate and 72 hours for the Test and Control plates), 25 μL of MTS+PMS solution was added to each microtiter well and incubated for 4 hours at 37° C. Plates were then removed from incubator and placed on plate shaker for 5 minutes (covered with aluminum foil for protection from light). Optical densities were read at 490 nm on spectrophotometer plate reader.
(§5) IC50 values were calculated from an average of two to four assays for each of the test agents.

[2] = tested on: HGC-27 human gastric carcinoma cell line; assay: IC50 determination, MTS assay, 72 h (Example 1); assay type: cell-based; conditions: Homo sapiens, 72 hours of drug exposure, read-out: IC50
Description: as §1, §2, §3, §4, §5

[3] = tested on: Hs746T human gastric carcinoma cell line; assay: IC50 determination, MTS assay, 72 h (Example 1); assay type: cell-based; conditions: Homo sapiens, 72 hours of drug exposure, read-out: IC50
Description: as §1, §2, §3, §4, §5

Hs746T tumors = assay type: in vivo, mice; conditions: for % Inhibition: PM00104 0.9 and doxorubicin 6 mg/kg/day
Source text: (§6) Female athymic nude mice (Harlan Sprague Dawley, Madison, Wis.) were utilized for all experiments. Animals were housed in ventilated rack caging with food and water ad libitum. The mice were acclimated for at least 5 days prior to tumor implantation with a tumor cell suspension.
The tumor model used in these studies was Hs746T cell line, which was obtained from the ATCC (Manassas, Va.).
Treatments were initiated on DPI 15.
5-FU was provided as a solution which was further diluted with water for injection.
(§7) Tumor size measurements were recorded twice weekly from the treatment initiation until the termination of the study.
(§8) Mean, standard deviation and standard error of the mean were determined for tumor volume for all animal groups at all assessments. Student's t test was performed on tumor volumes at each measurement day, including at the end of the study, to determine whether there were any statistically significant differences between combination treatment groups and single monotherapy treatment groups.

MRI-H-254 tumors = assay type: in vivo, mice
Description: as §6, with “with” for “with a”, “fragments. The Vehicle Control group contained 11 mice, groups 2-6 contained 8 mice/group, and the rest of groups contained 9 mice/group.” for “cell suspension.”
This cell line was grown and implanted to the animals as described in Example 11.
Tumor measurements were determined as disclosed in Example 4. […] Treatments were initiated on DPI 17.
PM00104 was provided in the form of vials of lyophilized PM00104 powder which was reconstituted with water for injection.
as §7, §8
The definition and criteria for the evaluation of potentiation and the degree of additivity for the combination therapy were the same as those disclose in Example 4.

[4] = tested on: MCF-7 (breast cancer) cell line; assay: IC50 determination, MIT (tetrazolium) assay, 72 h (Example 18); assay type: cell-based; conditions: Homo sapiens, MCF7; MCF-7, 72 hours of drug exposure
Description: (§9) Before plating, cell cultures were trypsinized and cell number estimated using an automated flow cytometer.
(§10) Cells were harvested and seeded in 96 well microtiter plates at the appropriate cell density (5,000-10,000 cells) in 150 μL of media and incubated for 24 hours to allow the cells to attach before drug addition.
(§11) After the incubation period (72 hours), 50 μL of MIT solution was added to each microtiter well and incubated for further 8 hours at 37° C. The culture medium was then removed and 50 μl, of DMSO were added to dissolve the MIT crystals. Optical densities were read at 540 nm on spectrophotometer microplate reader.
as §5

[5] = tested on: MDA-MB-231 (breast cancer) cell line; assay: as above; assay type: cell-based; conditions: Homo sapiens; MDA-MB-231, 72 hours of drug exposure
Description: as §9, §10, §11, §5

[6] = PM00104 0.9, 5-FU 50 (DPI 15) then 100 (DPI 22 & 29), irinotecan 20, doxorubicin 6 mg/kg/day
[7] = PM00104 0.90 IV, doxorubicin 6 IP, paclitaxel 12.5 IP mg/kg/day (G2, G5, G6, G7, G8)

In the case of COc1cccc2c1C(=O)c1c(O)c3c(c(O)c1C2=O)C[C@@](O)(C(=O)CO)C[C@@H]3O[C@H]1C[C@H](N)[C@H](O)[C@H](C)O1 [Doxorubicin, doxorubicin], the IC50 [1] is reported as 0.156 µg/mL (≈ 0.287 µM), the IC50 [2] is reported as 0.177 µg/mL (≈ 0.326 µM) and the IC50 [3] is reported as 8.97 µg/mL (≈ 16.5 µM). The “% T/C on day 15” value (Hs746T tumors; [6]) was 104.2%, the “% T/C on day 19” value (Hs746T tumors; [6]) was 79.8% and the “% T/C on day 26” value (Hs746T tumors; [6]) was 48.9%. The “% T/C on day 29” value (Hs746T tumors; [6]) was 40.2%, the “% T/C on day 33” value (Hs746T tumors; [6]) was 51.4% and the “% Inhibition” value (Hs746T tumors; day 15) was −4.2%. The “% Inhibition” value (Hs746T tumors; day 19) was 20.2%, the “% Inhibition” value (Hs746T tumors; day 22) was 52.6% and the “% Inhibition” value (Hs746T tumors; day 26) was 51.1%. For the same molecule, the “% Inhibition” value (Hs746T tumors; day 29) was 59.8%, the “% Inhibition” value (Hs746T tumors; day 33) was 48.6% and the “% T/C on day 17” value (MRI-H-254 tumors; [7]) was 98.2%. The “% T/C on day 20” value (MRI-H-254 tumors; [7]) was 93.5%, the “% T/C on day 24” value (MRI-H-254 tumors; [7]) was 76.2% and the “% T/C on day 27” value (MRI-H-254 tumors; [7]) was 64.4%. For the same molecule, the “% T/C on day 32” value (MRI-H-254 tumors; [7]) was 56.3%, the “% T/C on day 35” value (MRI-H-254 tumors; [7]) was 24.8% and the “% T/C on day 39” value (MRI-H-254 tumors; [7]) was 19.7%. For the same molecule, the “% T/C on day 47” value (MRI-H-254 tumors; [7]) was 15.7%, the “% Inhibition” value (MRI-H-254 tumors; day 14, PM00104 0.23, doxorubicin 6, paclitaxel 12.5 mg/kg/day) was 1.8% and the “% Inhibition” value (MRI-H-254 tumors; day 14, PM00104 0.45, doxorubicin 6, paclitaxel 12.5 mg/kg/day) was 1.8%. The “% Inhibition” value (MRI-H-254 tumors; day 14, PM00104 0.9 and doxorubicin 6 mg/kg/day) was 1.8%, the “% Inhibition” value (MRI-H-254 tumors; day 20, PM00104 0.23, doxorubicin 6, paclitaxel 12.5 mg/kg/day) was 6.5% and the “% Inhibition” value (MRI-H-254 tumors; day 20, PM00104 0.45, doxorubicin 6, paclitaxel 12.5 mg/kg/day) was 6.5%. For the same molecule, the “% Inhibition” value (MRI-H-254 tumors; day 20, PM00104 0.9 and doxorubicin 6 mg/kg/day) was 6.5%, the “% Inhibition” value (MRI-H-254 tumors; day 24, PM00104 0.23, doxorubicin 6, paclitaxel 12.5 mg/kg/day) was 23.8% and the “% Inhibition” value (MRI-H-254 tumors; day 24, PM00104 0.45, doxorubicin 6, paclitaxel 12.5 mg/kg/day) was 23.8%. The “% Inhibition” value (MRI-H-254 tumors; day 24, PM00104 0.9 and doxorubicin 6 mg/kg/day) was 23.8%, the “% Inhibition” value (MRI-H-254 tumors; day 27, PM00104 0.23, doxorubicin 6, paclitaxel 12.5 mg/kg/day) was 35.6% and the “% Inhibition” value (MRI-H-254 tumors; day 27, PM00104 0.45, doxorubicin 6, paclitaxel 12.5 mg/kg/day) was 35.6%. The “% Inhibition” value (MRI-H-254 tumors; day 27, PM00104 0.9 and doxorubicin 6 mg/kg/day) was 35.6%, the “% Inhibition” value (MRI-H-254 tumors; day 32, PM00104 0.23, doxorubicin 6, paclitaxel 12.5 mg/kg/day) was 43.7% and the “% Inhibition” value (MRI-H-254 tumors; day 32, PM00104 0.45, doxorubicin 6, paclitaxel 12.5 mg/kg/day) was 43.7%. The “% Inhibition” value (MRI-H-254 tumors; day 32, PM00104 0.9 and doxorubicin 6 mg/kg/day) was 43.7%, the “% Inhibition” value (MRI-H-254 tumors; day 35, PM00104 0.23, doxorubicin 6, paclitaxel 12.5 mg/kg/day) was 75.2% and the “% Inhibition” value (MRI-H-254 tumors; day 35, PM00104 0.45, doxorubicin 6, paclitaxel 12.5 mg/kg/day) was 75.2%. The “% Inhibition” value (MRI-H-254 tumors; day 35, PM00104 0.9 and doxorubicin 6 mg/kg/day) was 75.2%, the “% Inhibition” value (MRI-H-254 tumors; day 39, PM00104 0.23, doxorubicin 6, paclitaxel 12.5 mg/kg/day) was 80.3% and the “% Inhibition” value (MRI-H-254 tumors; day 39, PM00104 0.45, doxorubicin 6, paclitaxel 12.5 mg/kg/day) was 80.3%. For the same molecule, the “% Inhibition” value (MRI-H-254 tumors; day 39, PM00104 0.9 and doxorubicin 6 mg/kg/day) was 80.3%, the “% Inhibition” value (MRI-H-254 tumors; day 47, PM00104 0.23, doxorubicin 6, paclitaxel 12.5 mg/kg/day) was 84.3% and the “% Inhibition” value (MRI-H-254 tumors; day 47, PM00104 0.9 and doxorubicin 6 mg/kg/day) was 84.3%. The IC50 [4] was 4 µM and the IC50 [5] was 1900 nM.
